# From patent publication US9546156B2, “N-bicyclic aryl,N'-pyrazolyl urea, thiourea, guanidine cyanoguanidine compounds as TrkA kinase inhibitors” (Array BioPharma Inc., priority 2012, dated 2017)
# Tests used:
# [1] = molecular target: T1, His-tagged recombinant human TrkA (Homo sapiens, UniProt P04629); assay: TrkA LanthaScreen Eu Kinase Binding Assay; details: averaged IC50; TR-FRET binding assay, 60 min, 22° C.; read-out: TrkA Enzyme IC50
# T1 construct: 6HIS tagged cytoplasmic domain from Invitrogen, Catalog No. PV3144; purchased Invitrogen PV3144
# T1 sequence (P04629 440-796 limits assumed): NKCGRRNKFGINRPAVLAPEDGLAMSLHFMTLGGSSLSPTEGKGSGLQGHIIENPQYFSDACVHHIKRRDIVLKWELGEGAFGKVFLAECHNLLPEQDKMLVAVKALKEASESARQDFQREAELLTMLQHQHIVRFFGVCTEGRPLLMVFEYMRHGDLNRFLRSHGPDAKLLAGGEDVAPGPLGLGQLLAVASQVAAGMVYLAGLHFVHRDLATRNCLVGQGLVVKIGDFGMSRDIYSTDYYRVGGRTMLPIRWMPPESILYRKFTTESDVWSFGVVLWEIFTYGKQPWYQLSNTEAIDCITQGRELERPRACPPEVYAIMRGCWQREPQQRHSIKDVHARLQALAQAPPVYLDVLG
# Description: TrkA binding activity was determined in a TrkA LanthaScreen™ Eu Kinase Binding Assay. 5 nM His-tagged recombinant human TrkA (6HIS tagged cytoplasmic domain from Invitrogen, Catalog No. PV3144) was incubated with 4 nM Alexa-Fluor® Tracer 236 (Invitrogen Cat. No. PV5592), 2 nM biotinylated anti-His (Invitrogen Cat. No. PV6090), and 2 nM europium-labeled Streptavidin (Invitrogen Cat. No. PV5899), in buffer (25 mM MOPS, pH 7.5, 5 mM MgCl2, 0.005% Triton X-100). Three fold serial dilutions of compounds of the invention in DMSO were added to a final percentage of 2% DMSO. After 60-minute incubation at 22° C., the reaction was measured using the EnVision multimode plate reader (PerkinElmer) via TR-FRET dual wavelength detection at […]. The percent of control was calculated using a ratiometric emission factor. The IC50 values were determined by fitting a four parameter model to the percent of control data.
# Table A provides averaged IC50 values for compounds of the invention when tested in the assay of Example A, where A represents an averaged IC50 value <100 nM; B represents an averaged IC50 value from 100 to 1,000 nM; and C represents an averaged IC50 value from 1,000 to 10,000 nM.
# IGF-1R = molecular target: T2, IGF-1R (Homo sapiens, UniProt P08069); assay: Off-target kinase profiling (KinaseProfiler); assay type: biochemical; details: 10 μM, ATP near Km
# T2 construct: purchased Millipore, Inc. (KinaseProfiler service)
# T2 sequence (P08069 31-1367): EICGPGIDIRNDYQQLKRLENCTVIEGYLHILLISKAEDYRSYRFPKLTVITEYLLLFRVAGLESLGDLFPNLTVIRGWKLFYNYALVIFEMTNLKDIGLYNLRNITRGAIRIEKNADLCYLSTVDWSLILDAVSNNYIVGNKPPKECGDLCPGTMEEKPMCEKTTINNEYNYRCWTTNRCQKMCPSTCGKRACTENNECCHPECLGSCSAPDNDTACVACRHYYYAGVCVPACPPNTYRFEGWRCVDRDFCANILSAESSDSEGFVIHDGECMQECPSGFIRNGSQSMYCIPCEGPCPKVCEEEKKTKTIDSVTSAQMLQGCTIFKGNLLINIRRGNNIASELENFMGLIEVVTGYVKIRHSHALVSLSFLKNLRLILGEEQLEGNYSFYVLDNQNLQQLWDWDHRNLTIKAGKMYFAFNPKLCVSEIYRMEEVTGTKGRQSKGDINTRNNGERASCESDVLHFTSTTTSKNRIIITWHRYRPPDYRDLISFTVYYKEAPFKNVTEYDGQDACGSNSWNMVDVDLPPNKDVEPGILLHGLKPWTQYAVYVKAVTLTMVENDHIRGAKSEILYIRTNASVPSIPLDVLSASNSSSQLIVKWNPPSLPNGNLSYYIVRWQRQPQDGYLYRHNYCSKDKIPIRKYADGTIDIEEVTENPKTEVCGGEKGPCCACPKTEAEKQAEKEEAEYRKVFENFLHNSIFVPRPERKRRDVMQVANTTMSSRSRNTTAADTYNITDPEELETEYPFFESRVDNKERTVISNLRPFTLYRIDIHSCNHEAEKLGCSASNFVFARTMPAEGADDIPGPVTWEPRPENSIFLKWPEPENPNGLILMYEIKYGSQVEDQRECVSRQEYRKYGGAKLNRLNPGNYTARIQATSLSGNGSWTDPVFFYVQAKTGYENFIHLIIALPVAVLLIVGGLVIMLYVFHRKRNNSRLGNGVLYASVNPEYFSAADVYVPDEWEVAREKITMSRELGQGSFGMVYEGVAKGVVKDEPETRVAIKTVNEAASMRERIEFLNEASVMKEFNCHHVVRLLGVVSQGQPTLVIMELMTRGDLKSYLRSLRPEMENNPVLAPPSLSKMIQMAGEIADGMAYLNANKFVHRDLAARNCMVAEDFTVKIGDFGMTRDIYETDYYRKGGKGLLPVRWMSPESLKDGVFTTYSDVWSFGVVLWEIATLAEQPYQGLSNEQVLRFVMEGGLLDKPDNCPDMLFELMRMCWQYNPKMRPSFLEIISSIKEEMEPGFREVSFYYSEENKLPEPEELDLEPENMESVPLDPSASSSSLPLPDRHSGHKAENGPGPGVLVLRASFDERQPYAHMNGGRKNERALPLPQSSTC
# Description: (§1) A representative compound (Example 16) of the invention was tested for off-target kinase activity at a concentration of 10 μM by Millipore, Inc. in their KinaseProfiler™ service against all the kinases available in their full kinase panel. The compound was run in duplicate at a concentration of ATP near the Km for each individual kinase according to Millipore's specifications. The results are shown in Table B. Data are reported as percent of control (POC) and are the average of the two replicates.
# EphA7 = molecular target: T3, EphA7 (Rattus norvegicus, UniProt P54759); assay: Off-target kinase profiling (KinaseProfiler); assay type: biochemical; details: 10 μM, ATP near Km
# T3 construct: purchased Millipore, Inc. (KinaseProfiler service)
# Description: as §1
# IGF-1R Activated = molecular target: T4, IGF-1R Activated (Homo sapiens, UniProt P08069); assay: Off-target kinase profiling (KinaseProfiler); assay type: biochemical; details: 10 μM, ATP near Km
# T4 construct: purchased Millipore, Inc. (KinaseProfiler service)
# Description: as §1
# FGFR1 = molecular target: T5, FGFR1 (Homo sapiens, UniProt P11362); assay: Off-target kinase profiling (KinaseProfiler); assay type: biochemical; details: 10 μM, ATP near Km
# T5 construct: purchased Millipore, Inc. (KinaseProfiler service)
# Description: as §1
# CDK6/cyclinD3 = molecular target: T6, CDK6/cyclinD3 (Homo sapiens, UniProt Q00534); assay: Off-target kinase profiling (KinaseProfiler); assay type: biochemical; details: 10 μM, ATP near Km
# T6 construct: purchased Millipore, Inc. (KinaseProfiler service)
# T6 sequence (Q00534 whole entry): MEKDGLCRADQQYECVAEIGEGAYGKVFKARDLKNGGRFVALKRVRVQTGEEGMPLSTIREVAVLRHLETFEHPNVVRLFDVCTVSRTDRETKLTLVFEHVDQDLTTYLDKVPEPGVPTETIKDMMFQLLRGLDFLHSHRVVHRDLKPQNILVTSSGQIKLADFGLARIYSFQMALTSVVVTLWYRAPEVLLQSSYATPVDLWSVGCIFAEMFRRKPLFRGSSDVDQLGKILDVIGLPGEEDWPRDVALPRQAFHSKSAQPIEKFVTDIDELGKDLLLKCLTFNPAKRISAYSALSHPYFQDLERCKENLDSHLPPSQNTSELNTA
# T6 sequence (P30281 whole entry partner): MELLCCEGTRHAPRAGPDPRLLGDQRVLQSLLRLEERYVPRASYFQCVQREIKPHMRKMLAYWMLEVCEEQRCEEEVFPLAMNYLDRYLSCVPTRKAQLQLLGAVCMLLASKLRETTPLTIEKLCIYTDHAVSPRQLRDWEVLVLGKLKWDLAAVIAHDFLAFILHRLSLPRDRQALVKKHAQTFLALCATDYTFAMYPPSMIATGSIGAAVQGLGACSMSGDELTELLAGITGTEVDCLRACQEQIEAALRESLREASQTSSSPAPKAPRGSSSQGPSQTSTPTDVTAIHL
# Description: as §1
# SGK3 = molecular target: T7, SGK3 (Homo sapiens, UniProt Q96BR1); assay: Off-target kinase profiling (KinaseProfiler); assay type: biochemical; details: 10 μM, ATP near Km
# T7 construct: purchased Millipore, Inc. (KinaseProfiler service)
# Description: as §1
# JNK1alpha1 = molecular target: T8, JNK1alpha1 (Homo sapiens, UniProt P45983); assay: Off-target kinase profiling (KinaseProfiler); assay type: biochemical; details: 10 μM, ATP near Km
# T8 construct: purchased Millipore, Inc. (KinaseProfiler service)
# Description: as §1
# MLK1 = molecular target: T9, MLK1 (Homo sapiens, UniProt P80192); assay: Off-target kinase profiling (KinaseProfiler); assay type: biochemical; details: 10 μM, ATP near Km
# T9 construct: purchased Millipore, Inc. (KinaseProfiler service)
# T9 sequence (P80192 whole entry): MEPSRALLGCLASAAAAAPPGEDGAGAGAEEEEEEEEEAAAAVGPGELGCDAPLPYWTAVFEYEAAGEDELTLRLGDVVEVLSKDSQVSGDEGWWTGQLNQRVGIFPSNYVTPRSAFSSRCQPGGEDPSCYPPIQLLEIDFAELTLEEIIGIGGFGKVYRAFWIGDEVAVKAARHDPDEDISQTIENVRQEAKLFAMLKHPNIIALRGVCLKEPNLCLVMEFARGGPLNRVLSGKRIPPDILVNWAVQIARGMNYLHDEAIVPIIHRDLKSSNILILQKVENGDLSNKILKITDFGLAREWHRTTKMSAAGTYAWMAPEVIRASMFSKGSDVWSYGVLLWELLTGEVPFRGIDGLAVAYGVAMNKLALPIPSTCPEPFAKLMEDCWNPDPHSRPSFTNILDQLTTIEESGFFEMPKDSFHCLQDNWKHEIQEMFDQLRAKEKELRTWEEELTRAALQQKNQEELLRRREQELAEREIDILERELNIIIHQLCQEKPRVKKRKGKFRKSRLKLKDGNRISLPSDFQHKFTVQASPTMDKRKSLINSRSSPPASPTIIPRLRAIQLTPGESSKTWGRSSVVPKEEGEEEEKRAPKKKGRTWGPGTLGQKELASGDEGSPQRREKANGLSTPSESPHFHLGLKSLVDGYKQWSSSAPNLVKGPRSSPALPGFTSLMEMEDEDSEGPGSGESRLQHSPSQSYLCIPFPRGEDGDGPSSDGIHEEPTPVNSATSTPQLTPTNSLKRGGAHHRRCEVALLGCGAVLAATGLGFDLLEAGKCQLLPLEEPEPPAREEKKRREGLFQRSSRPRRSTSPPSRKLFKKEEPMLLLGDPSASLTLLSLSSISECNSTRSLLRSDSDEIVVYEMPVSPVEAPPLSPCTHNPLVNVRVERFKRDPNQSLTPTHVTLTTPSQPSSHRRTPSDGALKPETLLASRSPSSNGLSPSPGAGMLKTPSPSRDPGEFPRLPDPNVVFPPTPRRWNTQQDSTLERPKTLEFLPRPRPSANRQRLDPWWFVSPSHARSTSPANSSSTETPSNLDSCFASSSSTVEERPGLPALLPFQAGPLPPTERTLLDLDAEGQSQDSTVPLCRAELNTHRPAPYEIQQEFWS
# Description: as §1
# Pim-1 = molecular target: T10, Pim-1 (Homo sapiens, UniProt P11309); assay: Off-target kinase profiling (KinaseProfiler); assay type: biochemical; details: 10 μM, ATP near Km
# T10 construct: purchased Millipore, Inc. (KinaseProfiler service)
# Description: as §1
# Rsk1 = molecular target: T11, Rsk1 (Homo sapiens, UniProt Q15418); assay: Off-target kinase profiling (KinaseProfiler); assay type: biochemical; details: 10 μM, ATP near Km
# T11 construct: purchased Millipore, Inc. (KinaseProfiler service)
# Description: as §1
# ALK = molecular target: T12, ALK (Homo sapiens, UniProt Q9UM73); assay: Off-target kinase profiling (KinaseProfiler); assay type: biochemical; details: 10 μM, ATP near Km
# T12 construct: purchased Millipore, Inc. (KinaseProfiler service)
# Description: as §1
# WNK2 = molecular target: T13, WNK2 (Homo sapiens, UniProt Q9Y3S1); assay: Off-target kinase profiling (KinaseProfiler); assay type: biochemical; details: 10 μM, ATP near Km
# T13 construct: purchased Millipore, Inc. (KinaseProfiler service)
# Description: as §1
# PTK6 = molecular target: T14, PTK6 (Homo sapiens, UniProt Q13882); assay: Off-target kinase profiling (KinaseProfiler); assay type: biochemical; details: 10 μM, ATP near Km
# T14 construct: purchased Millipore, Inc. (KinaseProfiler service)
# Description: as §1
# IR Activated = molecular target: T15, IR Activated (Homo sapiens, UniProt P06213); assay: Off-target kinase profiling (KinaseProfiler); assay type: biochemical; details: 10 μM, ATP near Km
# T15 construct: purchased Millipore, Inc. (KinaseProfiler service)
# T15 sequence (P06213 1005-1310 limits assumed): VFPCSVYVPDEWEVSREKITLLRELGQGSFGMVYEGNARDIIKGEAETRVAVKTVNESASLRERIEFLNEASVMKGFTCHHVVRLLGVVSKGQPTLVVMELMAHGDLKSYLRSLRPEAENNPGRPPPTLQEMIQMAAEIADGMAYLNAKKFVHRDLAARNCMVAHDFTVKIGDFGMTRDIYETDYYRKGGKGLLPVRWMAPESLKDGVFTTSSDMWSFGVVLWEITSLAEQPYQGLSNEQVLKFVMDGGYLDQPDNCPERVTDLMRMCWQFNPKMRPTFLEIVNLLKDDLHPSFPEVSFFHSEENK
# Description: as §1
# FAK = molecular target: T16, FAK (Homo sapiens, UniProt Q05397); assay: Off-target kinase profiling (KinaseProfiler); assay type: biochemical; details: 10 μM, ATP near Km
# T16 construct: purchased Millipore, Inc. (KinaseProfiler service)
# Description: as §1
# Fyn = molecular target: T17, Fyn (Homo sapiens, UniProt P06241); assay: Off-target kinase profiling (KinaseProfiler); assay type: biochemical; details: 10 μM, ATP near Km
# T17 construct: purchased Millipore, Inc. (KinaseProfiler service)
# Description: as §1
# FGFR3 = molecular target: T18, FGFR3 (Homo sapiens, UniProt P22607); assay: Off-target kinase profiling (KinaseProfiler); assay type: biochemical; details: 10 μM, ATP near Km
# T18 construct: purchased Millipore, Inc. (KinaseProfiler service)
# Description: as §1
# ARK5 = molecular target: T19, ARK5 (Homo sapiens, UniProt O60285); assay: Off-target kinase profiling (KinaseProfiler); assay type: biochemical; details: 10 μM, ATP near Km
# T19 construct: purchased Millipore, Inc. (KinaseProfiler service)
# Description: as §1
# TAO2 = molecular target: T20, TAO2 (Homo sapiens, UniProt Q9UL54); assay: Off-target kinase profiling (KinaseProfiler); assay type: biochemical; details: 10 μM, ATP near Km
# T20 construct: purchased Millipore, Inc. (KinaseProfiler service)
# Description: as §1
# CDK5/p35 = molecular target: T21, CDK5/p35 (Homo sapiens, UniProt Q00535); assay: Off-target kinase profiling (KinaseProfiler); assay type: biochemical; details: 10 μM, ATP near Km
# T21 construct: purchased Millipore, Inc. (KinaseProfiler service)
# Description: as §1
# Plk3 = molecular target: T22, Plk3 (Homo sapiens, UniProt Q9H4B4); assay: Off-target kinase profiling (KinaseProfiler); assay type: biochemical; details: 10 μM, ATP near Km
# T22 construct: purchased Millipore, Inc. (KinaseProfiler service)
# Description: as §1
# LIMK1 = molecular target: T23, LIMK1 (Homo sapiens, UniProt P53667); assay: Off-target kinase profiling (KinaseProfiler); assay type: biochemical; details: 10 μM, ATP near Km
# T23 construct: purchased Millipore, Inc. (KinaseProfiler service)
# Description: as §1
# PKCeta = molecular target: T24, PKCeta (Homo sapiens, UniProt P24723); assay: Off-target kinase profiling (KinaseProfiler); assay type: biochemical; details: 10 μM, ATP near Km
# T24 construct: purchased Millipore, Inc. (KinaseProfiler service)
# Description: as §1
# LKB1 = molecular target: T25, LKB1 (Homo sapiens, UniProt Q15831); assay: Off-target kinase profiling (KinaseProfiler); assay type: biochemical; details: 10 μM, ATP near Km
# T25 construct: purchased Millipore, Inc. (KinaseProfiler service)
# Description: as §1
# PAK5 = molecular target: T26, PAK5 (Homo sapiens, UniProt Q9P286); assay: Off-target kinase profiling (KinaseProfiler); assay type: biochemical; details: 10 μM, ATP near Km
# T26 construct: purchased Millipore, Inc. (KinaseProfiler service)
# Description: as §1
# TEC Activated = molecular target: T27, TEC Activated (Homo sapiens, UniProt P42680); assay: Off-target kinase profiling (KinaseProfiler); assay type: biochemical; details: 10 μM, ATP near Km
# T27 construct: purchased Millipore, Inc. (KinaseProfiler service)
# T27 sequence (P42680 whole entry): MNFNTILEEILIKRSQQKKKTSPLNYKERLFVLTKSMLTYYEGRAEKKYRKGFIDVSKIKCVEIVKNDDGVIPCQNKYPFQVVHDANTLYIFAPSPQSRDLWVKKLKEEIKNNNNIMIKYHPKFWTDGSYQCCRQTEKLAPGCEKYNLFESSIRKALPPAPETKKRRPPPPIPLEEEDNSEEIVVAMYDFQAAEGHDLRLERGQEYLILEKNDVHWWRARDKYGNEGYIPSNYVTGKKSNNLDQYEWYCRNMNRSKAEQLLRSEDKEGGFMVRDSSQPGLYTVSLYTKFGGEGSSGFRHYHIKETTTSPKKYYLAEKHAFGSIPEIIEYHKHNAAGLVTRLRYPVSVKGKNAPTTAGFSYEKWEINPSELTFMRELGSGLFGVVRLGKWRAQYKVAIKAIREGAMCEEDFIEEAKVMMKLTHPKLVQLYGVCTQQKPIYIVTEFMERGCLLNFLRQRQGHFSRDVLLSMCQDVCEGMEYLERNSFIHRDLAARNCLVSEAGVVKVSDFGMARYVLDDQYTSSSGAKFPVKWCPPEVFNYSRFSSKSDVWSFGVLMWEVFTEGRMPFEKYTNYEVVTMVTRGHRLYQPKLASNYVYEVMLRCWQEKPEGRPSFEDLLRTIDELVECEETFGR
# Description: as §1
# Lyn = molecular target: T28, Lyn (Homo sapiens, UniProt P07948); assay: Off-target kinase profiling (KinaseProfiler); assay type: biochemical; details: 10 μM, ATP near Km
# T28 construct: purchased Millipore, Inc. (KinaseProfiler service)
# T28 sequence (P07948 whole entry): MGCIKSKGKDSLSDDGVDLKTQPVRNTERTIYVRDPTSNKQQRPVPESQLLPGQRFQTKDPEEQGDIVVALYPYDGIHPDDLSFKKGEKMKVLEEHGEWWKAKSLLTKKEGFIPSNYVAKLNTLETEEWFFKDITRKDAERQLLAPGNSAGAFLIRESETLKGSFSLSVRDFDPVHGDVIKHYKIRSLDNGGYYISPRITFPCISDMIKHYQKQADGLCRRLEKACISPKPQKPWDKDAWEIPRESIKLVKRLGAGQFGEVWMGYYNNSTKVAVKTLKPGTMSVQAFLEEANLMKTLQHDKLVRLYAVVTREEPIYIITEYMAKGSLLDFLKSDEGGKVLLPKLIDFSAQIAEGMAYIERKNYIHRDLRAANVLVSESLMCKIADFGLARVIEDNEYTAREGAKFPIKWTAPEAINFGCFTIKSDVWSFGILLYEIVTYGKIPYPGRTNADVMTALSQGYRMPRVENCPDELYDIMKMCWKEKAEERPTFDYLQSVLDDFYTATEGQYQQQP
# Description: as §1
# AKT1 = molecular target: T29, AKT1 (Homo sapiens, UniProt P31749); assay: Off-target kinase profiling (KinaseProfiler); assay type: biochemical; details: 10 μM, ATP near Km
# T29 construct: purchased Millipore, Inc. (KinaseProfiler service)
# Description: as §1
# IKKbeta = molecular target: T30, IKKbeta (Homo sapiens, UniProt O14920); assay: Off-target kinase profiling (KinaseProfiler); assay type: biochemical; details: 10 μM, ATP near Km
# T30 construct: purchased Millipore, Inc. (KinaseProfiler service)
# Description: as §1
# AURKA = molecular target: T31, AURKA (Homo sapiens, UniProt O14965); assay: Off-target kinase profiling (KinaseProfiler); assay type: biochemical; details: 10 μM, ATP near Km
# T31 construct: purchased Millipore, Inc. (KinaseProfiler service)
# Description: as §1
# DAPK2 = molecular target: T32, DAPK2 (Homo sapiens, UniProt Q9UIK4); assay: Off-target kinase profiling (KinaseProfiler); assay type: biochemical; details: 10 μM, ATP near Km
# T32 construct: purchased Millipore, Inc. (KinaseProfiler service)
# Description: as §1
compound,measurement,setting,value
"COCc1ccc2cccc(NC(=O)Nc3c(C)c(-c4cnn(C)c4)nn3-c3ccccc3)c2c1 [Example 16, 1-(1′,4-dimethyl-1-phenyl-1H,1′H-[3,4′-bipyrazol]-5-yl)-3-(7-(methoxymethyl)naphthalen-1-yl)urea]",IC50,[1],< 100 nM
same,Avg POC,IGF-1R,81 POC
same,Avg POC,EphA7,107 POC
same,Avg POC,IGF-1R Activated,101 POC
same,Avg POC,FGFR1,116 POC
same,Avg POC,CDK6/cyclinD3,121 POC
same,Avg POC,SGK3,131.5 POC
same,Avg POC,JNK1alpha1,111.5 POC
same,Avg POC,MLK1,106 POC
same,Avg POC,Pim-1,124.5 POC
same,Avg POC,Rsk1,226.5 POC
same,Avg POC,ALK,114.5 POC
same,Avg POC,WNK2,122.5 POC
same,Avg POC,PTK6,114.5 POC
same,Avg POC,IR Activated,102.5 POC
same,Avg POC,FAK,113.5 POC
same,Avg POC,Fyn,112.5 POC
same,Avg POC,FGFR3,122 POC
same,Avg POC,ARK5,103.5 POC
same,Avg POC,TAO2,119.5 POC
same,Avg POC,CDK5/p35,123.5 POC
same,Avg POC,Plk3,103.5 POC
same,Avg POC,LIMK1,105.5 POC
same,Avg POC,PKCeta,122 POC
same,Avg POC,LKB1,111 POC
same,Avg POC,PAK5,122.5 POC
same,Avg POC,TEC Activated,121.5 POC
same,Avg POC,Lyn,112 POC
same,Avg POC,AKT1,129 POC
same,Avg POC,IKKbeta,130.5 POC
same,Avg POC,AURKA,128 POC
same,Avg POC,DAPK2,105.5 POC
